Data taken from US20020137929A1, “1 - (3-heterocyclylphenyl) isothiourea, -isourea, -guanidine and -amidine herbicidal agents” (Intellectual Property Department, BASF Aktiengesellschaft, priority 1998, published 2002).

Legend:
ABUTH (Velvetleaf) [1] = assay: Postemergence herbicidal evaluation; type: in vivo, Abutilon theophrasti; details: postemergence
In short: (§1)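 Two-week seedlings sprayed postemergence at 40 psi; formulation: 1:1 acetone/water, 0.5% TWEEN 20; application ≈0.0156–0.500 kg/ha. Greenhouse grow-out, then 0–9 visual scoring at 4–5 weeks.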

[2] = test system: IPOHE (Morningglory, Ivyleaf); assay: Postemergence herbicidal evaluation; type: in vivo, Ipomoea hederacea; details: postemergence
In short: as §1

[3] = test system: TRZAWR (Wheat, Winter, cv Riband); assay: Postemergence herbicidal evaluation; type: in vivo, Triticum aestivum; details: postemergence
In short: as §1

ZEAMX (Corn, Field) = assay: Postemergence herbicidal evaluation; type: in vivo, Zea mays; details: postemergence
In short: as §1

ABUTH (Velvetleaf) [4] = assay: Preemergence herbicidal evaluation; type: in vivo, Abutilon theophrasti; details: rated 4-5 weeks after treatment
In short: (§2)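 Seeds were mixed with potting soil and planted on about one inch of soil, then sprayed with test compound in aqueous acetone at about 0.0156 to 0.500 kg per hectare. Plants grew under standard greenhouse care and were visually rated 0-9 against untreated controls 4-5 weeks post-treatment.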

AMBEL (Ragweed, Common) = assay: Preemergence herbicidal evaluation; type: in vivo, Ambrosia artemisifolia; details: rated 4-5 weeks after treatment
In short: as §2

CASOB (Sicklepod) = assay: Preemergence herbicidal evaluation; type: in vivo, Cassia obtusifolia; details: rated 4-5 weeks after treatment
In short: as §2

GALAP (Galium) = assay: Preemergence herbicidal evaluation; type: in vivo, Galium aparine; details: rated 4-5 weeks after treatment
In short: as §2

[5] = test system: GLXMAW (Soybean, Williams); assay: Preemergence herbicidal evaluation; type: in vivo, Glycine max, (L.) Merr. cv Williams; details: rated 4-5 weeks after treatment
In short: as §2

ORYSAT (Rice, Tebonnet) = assay: Preemergence herbicidal evaluation; type: in vivo, Oryza sativa, (L.) Tebonnet; details: rated 4-5 weeks after treatment
In short: as §2

[6] = test system: TRZAWR (Wheat, Winter, cv Riband); assay: Preemergence herbicidal evaluation; type: in vivo, Triticum aestivum; details: rated 4-5 weeks after treatment
In short: as §2

[7] = test system: SAGPY (Arrowhead (Pygmaea)); assay: Preemergence weed control under flooded paddy conditions; type: in vivo, Sagittaria pygmaea; details: rated 3-4 weeks after treatment
In short: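 Visual injury scored 0-9 against control three to four weeks post-treatment, greenhouse-grown. Application: acetone/water (50/50) solutions dosed directly into flood water (1.5-3 cm over silt loam, planted top 0.5 cm), roughly 0.0313 to 0.500 kg/ha active ingredient.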

CCOC(=O)CN1C(=O)C(CC(=O)O)SC1=Nc1cc(-n2nc(C)n(C(F)F)c2=O)c(F)cc1Cl (stereo not shown) [Compound 112, 2-{{2-Chloro-5-[4-(difluoromethyl)-4,5-dihydro-3-methyl-5-oxo-1H-1,2,4-triazol-1-yl]-4-fluorophenyl}imino}-4-oxo-3,5-thiazolidinediacetic acid, 3-ethyl ester]
herbicidal rating ABUTH (ABUTH (Velvetleaf) [1]; rate 0.0158 kg/ha): 9.0
herbicidal rating ABUTH (ABUTH (Velvetleaf) [1]; rate 0.0315 kg/ha): 9.0
herbicidal rating ABUTH (ABUTH (Velvetleaf) [1]; rate 0.0630 kg/ha): 9.0
herbicidal rating IPOHE ([2]; rate 0.0158 kg/ha): 9.0
herbicidal rating IPOHE ([2]; rate 0.0315 kg/ha): 9.0
herbicidal rating IPOHE ([2]; rate 0.0630 kg/ha): 9.0
herbicidal rating TRZAWR ([3]; rate 0.0158 kg/ha): 2.0
herbicidal rating TRZAWR ([3]; rate 0.0315 kg/ha): 2.0
herbicidal rating TRZAWR ([3]; rate 0.0630 kg/ha): 3.0
herbicidal rating ZEAMX (ZEAMX (Corn, Field); rate 0.0158 kg/ha): 4.5
herbicidal rating ZEAMX (ZEAMX (Corn, Field); rate 0.0315 kg/ha): 4.5
herbicidal rating ZEAMX (ZEAMX (Corn, Field); rate 0.0630 kg/ha): 5.0
Preemergence herbicidal rating ABUTH (ABUTH (Velvetleaf) [4]; rate 0.0313 kg/ha): 0.0
Preemergence herbicidal rating ABUTH (ABUTH (Velvetleaf) [4]; rate 0.0625 kg/ha): 0.0
Preemergence herbicidal rating ABUTH (ABUTH (Velvetleaf) [4]; rate 0.2500 kg/ha): 1.0
Preemergence herbicidal rating AMBEL (AMBEL (Ragweed, Common); rate 0.0313 kg/ha): 0.0
Preemergence herbicidal rating AMBEL (AMBEL (Ragweed, Common); rate 0.0625 kg/ha): 0.0
Preemergence herbicidal rating AMBEL (AMBEL (Ragweed, Common); rate 0.1250 kg/ha): 0.0
Preemergence herbicidal rating AMBEL (AMBEL (Ragweed, Common); rate 0.2500 kg/ha): 0.0
Preemergence herbicidal rating CASOB (CASOB (Sicklepod); rate 0.0313 kg/ha): 0.0
Preemergence herbicidal rating CASOB (CASOB (Sicklepod); rate 0.0625 kg/ha): 0.0
Preemergence herbicidal rating CASOB (CASOB (Sicklepod); rate 0.1250 kg/ha): 0.0
Preemergence herbicidal rating CASOB (CASOB (Sicklepod); rate 0.2500 kg/ha): 0.0
Preemergence herbicidal rating GALAP (GALAP (Galium); rate 0.0313 kg/ha): 0.0
Preemergence herbicidal rating GALAP (GALAP (Galium); rate 0.0625 kg/ha): 0.0
Preemergence herbicidal rating GALAP (GALAP (Galium); rate 0.1250 kg/ha): 0.0
Preemergence herbicidal rating GALAP (GALAP (Galium); rate 0.2500 kg/ha): 0.0
Preemergence herbicidal rating GLXMAW ([5]; rate 0.0313 kg/ha): 0.0
Preemergence herbicidal rating GLXMAW ([5]; rate 0.0625 kg/ha): 1.0
Preemergence herbicidal rating GLXMAW ([5]; rate 0.1250 kg/ha): 3.0
Preemergence herbicidal rating GLXMAW ([5]; rate 0.2500 kg/ha): 3.0
Preemergence herbicidal rating ORYSAT (ORYSAT (Rice, Tebonnet); rate 0.0313 kg/ha): 0.0
Preemergence herbicidal rating ORYSAT (ORYSAT (Rice, Tebonnet); rate 0.0625 kg/ha): 0.0
Preemergence herbicidal rating ORYSAT (ORYSAT (Rice, Tebonnet); rate 0.1250 kg/ha): 0.0
Preemergence herbicidal rating ORYSAT (ORYSAT (Rice, Tebonnet); rate 0.2500 kg/ha): 2.0
Preemergence herbicidal rating TRZAWR ([6]; rate 0.0313 kg/ha): 0.0
Preemergence herbicidal rating TRZAWR ([6]; rate 0.0625 kg/ha): 0.0
Preemergence herbicidal rating TRZAWR ([6]; rate 0.1250 kg/ha): 0.0
Preemergence herbicidal rating TRZAWR ([6]; rate 0.2500 kg/ha): 1.0
SAGPY herbicidal effect rating ([7]; 0.0313 kg/ha): 6.0
SAGPY herbicidal effect rating ([7]; 0.0625 kg/ha): 7.0
SAGPY herbicidal effect rating ([7]; 0.1250 kg/ha): 7.0
SAGPY herbicidal effect rating ([7]; 0.2500 kg/ha): 7.0
